Source: EP0012729A1, “Therapeutic compositions containing as active compound a substituted acetic acid or its salt” ("IBIS" ISTITUTO BIOCHIMICO SPERIMENTALE S.p.A., priority 1978, dated 1980)

System: Wistar rats
Assay: Choleretic activity in the rat, bile fistula method
Assay type: in vivo
Conditions: for R.S. (dry residue): pooled bile; for ml of bile flow ± s.e.: second series
Description: It is known that the primary effect of a choleretic agent is to increase the bile flow and the quantity of solid substances excreted with the bile. A good choleretic must provide this effect in a sufficiently intense and prolonged manner. In addition, as in the case of all drugs, it must have low acute toxicity and good general tolerability, but in particular must be free from toxic effects on the organ on which it is required to act, i.e. the liver, whether this is in a normal or pathological state. The analysis of the new product in comparison with the best known products for the same therapeutic use has therefore been focused on these aspects. The choleretic activity of the new product has been determined in the rat by using the bile fistula method. Wistar rats of both sexes and having a weight of between 180 and 240 g were used.
The animals, which were kept fasting for 12 hours but with free access to water, were narcotised by ethyl urethane in a dose of 1 g/kg by intra peritoneal or intramuscular injection.
After binding the animals to the retention bed, a median laparatomy was carried out, and when the bile duct had been isolated a cannula needle was inserted into it. A polythene tube was then inserted into those ani mals which were to receive the products intraduodenally, after which a su ture was carried out on the abdominal wall, and the bile was allowed to discharge for 30 minutes after inserting the cannula in the bile duct, so as to allow the discharge to become normal. The bile was then collec ted for one hour.
Having determined the volume of bile discharged during this first hour of collection (base volume), the products under examination were administered at the predetermined doses and by the predetermined methods. The bile excreted by the individual animals was then collected over each hour for a further six hours.
During the experiments, the animals were kept at ambient temperature of about 22°C, and at regular intervals of two hours received 10 ml/kg of physiological solution s.c.
The liquids were administered at a temperature of 37°C.
The bile flow and cholesterol excretion were determined on those bile fractions excreted by the animals over each hour starting from the base hour until the end of the experiment
The dry residue (R.So) was determined on the bile fraction excreted during the base hour and on the total bile fractions excreted during the sub sequent hours. For practical reasons, the determination of the dry residue and of the cholesterol (carried out by the Sperry & Webb method) were carried out on the pool of bile excreted by the entire group of animals subjected to the same treatment instead of on the bile fractions excreted by the individual animals (which was sometimes insufficient for determining the cholesterol).
In compiling the graphs, the differences between the choleresis in the treated animals and that in the controls was calculated over the considered time intervals, and expressed as a percentage of the base choleresis. For this calculation, the following formula was used: [formula] where Cn and C' represent the choleresis (in ml/kg/h for the bile flow, and in mg/kg/h for the dry residue) determined over the considered time interval for the group of treated animals and the group of controls respectively. Cb and C'b represent the base choleresis in the group of treated animals and group of controls respectively.
This index was calculated as the time for halving the maximum choleresis increase recorded under their effect.

Structure (SMILES): C[C@H](CCC(=O)O)[C@H]1CC[C@H]2[C@@H]3C(=O)C[C@@H]4CC(=O)CC[C@]4(C)[C@H]3CC(=O)[C@]12C [Dehydrocholic acid, dehydrocholic acid]
- Flow (25 mg/kg p.o., 0 (base hour)): 2,46±0,05 ml/kg/h
- R.S. (dry residue) (25 mg/kg p.o., 0 (base hour)): 59,8 mg/kg/h
- Flow (25 mg/kg p.o., 1h): 3,33±0,14 ml/kg/h
- R.S. (dry residue) (25 mg/kg p.o., 1h): 84,1 mg/kg/h
- Flow (25 mg/kg p.o., 2h): 1,88±0,14 ml/kg/h
- Flow (25 mg/kg p.o., 3h): 2,19±0,15 ml/kg/h
- Flow (25 mg/kg p.o., 4h): 1,92±0,17 ml/kg/h
- Flow (25 mg/kg p.o., 5h): 1,77±0,16 ml/kg/h
- Flow (25 mg/kg p.o., 6h): 1,29±0,15 ml/kg/h
- R.S. (dry residue) (25 mg/kg p.o., subsequent hours 2h-6h): 41,0 mg/kg/h
- Flow (50 mg/kg i.d., 0 (base hour)): 2,31±0,15 ml/kg/h
- R.S. (dry residue) (50 mg/kg i.d., 0 (base hour)): 61,9 mg/kg/h
- Flow (50 mg/kg i.d., 1 h): 3,82±0,26 ml/kg/h
- R.S. (dry residue) (50 mg/kg i.d., 1 h): 98,5 mg/kg/h
- Flow (50 mg/kg i.d., 2 h): 2,51±0,17 ml/kg/h
- Flow (50 mg/kg i.d., 3 h): 2,63±0,19 ml/kg/h
- Flow (50 mg/kg i.d., 4 h): 1,93±0,12 ml/kg/h
- Flow (50 mg/kg i.d., 5 h): 1,87±0,13 ml/kg/h
- Flow (50 mg/kg i.d., 6 h): 1,45±0,14 ml/kg/h
- R.S. (dry residue) (50 mg/kg i.d., subsequent hours 2h-6h (printed under 4 h)): 44,5 mg/kg/h
- Flow (100 mg/kg i.d., 0 (base hour)): 1,80±0,09 ml/kg/h
- R.S. (dry residue) (100 mg/kg i.d., 0 (base hour)): 52,3 mg/kg/h
- Flow (100 mg/kg i.d., 1 h): 4,59±0,24 ml/kg/h
- R.S. (dry residue) (100 mg/kg i.d., 1 h): 147,0 mg/kg/h
- Flow (100 mg/kg i.d., 2 h): 2,45±0,10 ml/kg/h
- Flow (100 mg/kg i.d., 3 h): 1,98±0,09 ml/kg/h
- Flow (100 mg/kg i.d., 4 h): 1,82±0,09 ml/kg/h
- Flow (100 mg/kg i.d., 5 h): 1,82+0,08 ml/kg/h
- Flow (100 mg/kg i.d., 6 h): 1,55±0,08 ml/kg/h
- R.S. (dry residue) (100 mg/kg i.d., subsequent hours 2h-6h (printed under 4 h)): 49,9 mg/kg/h
- Flow (100 mg/kg p.o., 0 (base hour)): 2,23±0,22 ml/kg/h
- R.S. (dry residue) (100 mg/kg p.o., 0 (base hour)): 55,4 mg/kg/h
- Flow (100 mg/kg p.o., 1h): 3,75±0,75 ml/kg/h
- R.S. (dry residue) (100 mg/kg p.o., 1h): 98,6 mg/kg/h
- Flow (100 mg/kg p.o., 2h): 2,60±0,24 ml/kg/h
- Flow (100 mg/kg p.o., 3h): 2,15±0,28 ml/kg/h
- Flow (100 mg/kg p.o., 4h): 2,10±0,24 ml/kg/h
- Flow (100 mg/kg p.o., 5h): 1,64±0,20 ml/kg/h
- Flow (100 mg/kg p.o., 6h): 1,64±0,24 ml/kg/h
- R.S. (dry residue) (100 mg/kg p.o., subsequent hours 2h-6h): 45,5 mg/kg/h
- Flow (200 mg/kg i.d., 0 (base hour)): 2,28±0,09 ml/kg/h
- R.S. (dry residue) (200 mg/kg i.d., 0 (base hour)): 71,0 mg/kg/h
- Flow (200 mg/kg i.d., 1 h): 8,10±0,38 ml/kg/h
- R.S. (dry residue) (200 mg/kg i.d., 1 h): 255,0 mg/kg/h
- Flow (200 mg/kg i.d., 2 h): 3,76±0,10 ml/kg/h
- Flow (200 mg/kg i.d., 3 h): 2,69±0,07 ml/kg/h
- Flow (200 mg/kg i.d., 4 h): 2,77±0,13 ml/kg/h
- Flow (200 mg/kg i.d., 5 h): 2,34±0,11 ml/kg/h
- Flow (200 mg/kg i.d., 6 h): 2,16±0,08 ml/kg/h
- R.S. (dry residue) (200 mg/kg i.d., subsequent hours 2h-6h (printed under 4 h)): 67,0 mg/kg/h
- Peak choleresis time of appearance (200 mg/kg p.o. (dose given for 1620 only)): 1st hour
- Peak choleresis % increase (200 mg/kg p.o. (dose given for 1620 only), increase over controls as percentage of base choleresis): 94%
- Duration index (200 mg/kg p.o. (dose given for 1620 only), time for halving the maximum choleresis increase): 45'
- Flow (200 mg/kg p.o., 0 (base hour)): 2,75±0,17 ml/kg/h
- R.S. (dry residue) (200 mg/kg p.o., 0 (base hour)): 85,8 mg/kg/h
- Flow (200 mg/kg p.o., 1h): 5,39±0,24 ml/kg/h
- R.S. (dry residue) (200 mg/kg p.o., 1h): 171,9 mg/kg/h
- Flow (200 mg/kg p.o., 2h): 3,50±0,13 ml/kg/h
- Flow (200 mg/kg p.o., 3h): 2,64±0,19 ml/kg/h
- Flow (200 mg/kg p.o., 4h): 2,78±0,18 ml/kg/h
- Flow (200 mg/kg p.o., 5h): 2,61±0,13 ml/kg/h
- Flow (200 mg/kg p.o., 6h): 2,38±0,14 ml/kg/h
- R.S. (dry residue) (200 mg/kg p.o., subsequent hours 2h-6h): 74,9 mg/kg/h
- Flow (400 mg/kg p.o., 0 (base hour)): 2,53±0,10 ml/kg/h
- R.S. (dry residue) (400 mg/kg p.o., 0 (base hour)): 71,8 mg/kg/h
- Flow (400 mg/kg p.o., 1h): 7,68±0,20 ml/kg/h
- R.S. (dry residue) (400 mg/kg p.o., 1h): 238,6 mg/kg/h
- Flow (400 mg/kg p.o., 2h): 4,70±0,45 ml/kg/h
- Flow (400 mg/kg p.o., 3h): 3,06±0,15 ml/kg/h
- Flow (400 mg/kg p.o., 4h): 2,59±0,16 ml/kg/h
- Flow (400 mg/kg p.o., 5h): 2,29±0,12 ml/kg/h
- Flow (400 mg/kg p.o., 6h): 1,97±0,15 ml/kg/h
- R.S. (dry residue) (400 mg/kg p.o., subsequent hours 2h-6h): 77,8 mg/kg/h
- ml of bile flow ± s.e. (oral by gastric probe 25 mg/kg, 0 (base values)): 2,4±0,21 ml
- ml of bile flow ± s.e. (oral by gastric probe 25 mg/kg, 1 h): 3,0±0,25 ml
- ml of bile flow ± s.e. (oral by gastric probe 25 mg/kg, 2 h): 2,0±0,12 ml
- ml of bile flow ± s.e. (oral by gastric probe 25 mg/kg, 3 h): 1,9±0,11 ml
- ml of bile flow ± s.e. (oral by gastric probe 25 mg/kg, 4 h): 1,7±0,13 ml
- ml of bile flow ± s.e. (oral by gastric probe 25 mg/kg, 5 h): 1,7±0,10 ml
- ml of bile flow ± s.e. (oral by gastric probe 25 mg/kg, 6 h): 1,4±0,11 ml
- ml of bile flow ± s.e. (oral by gastric probe 50 mg/kg, 0 (base values)): 2,5±0,16 ml
- ml of bile flow ± s.e. (oral by gastric probe 50 mg/kg, 1 h): 3,9±0,18 ml
- ml of bile flow ± s.e. (oral by gastric probe 50 mg/kg, 2 h): 2,1±0,16 ml
- ml of bile flow ± s.e. (oral by gastric probe 50 mg/kg, 3 h): 1,9±0,14 ml
- ml of bile flow ± s.e. (oral by gastric probe 50 mg/kg, 4 h): 1,8±0,17 ml
- ml of bile flow ± s.e. (oral by gastric probe 50 mg/kg, 5 h): 1,7±0,11 ml
- ml of bile flow ± s.e. (oral by gastric probe 50 mg/kg, 6 h): 1,5±0,13 ml
